Assays:
MRCKβ = MRCKβ (Homo sapiens (Human), UniProt Q9Y5S2); assay: MRCKβ kinase assay (IMAP fluorescence polarization); format: biochemical; conditions: 1 μM ATP; read-out: MRCK-B Average Ki
Excerpt: (§1) MRCKα, MRCKβ, ROCK1 and ROCK2 Kinase Assays

ROCK2 = ROCK2 (Homo sapiens (Human), UniProt O75116); assay: ROCK2 kinase assay (IMAP fluorescence polarization); format: biochemical; conditions: 1 μM ATP; read-out: ROCK2 Average Ki
ROCK1 = ROCK1 (Homo sapiens (Human), UniProt Q13464); conditions: read-out: ROCK1 Average Ki; 1 μM ATP
Sequence of ROCK1 (Q13464 2-1354 limits assumed): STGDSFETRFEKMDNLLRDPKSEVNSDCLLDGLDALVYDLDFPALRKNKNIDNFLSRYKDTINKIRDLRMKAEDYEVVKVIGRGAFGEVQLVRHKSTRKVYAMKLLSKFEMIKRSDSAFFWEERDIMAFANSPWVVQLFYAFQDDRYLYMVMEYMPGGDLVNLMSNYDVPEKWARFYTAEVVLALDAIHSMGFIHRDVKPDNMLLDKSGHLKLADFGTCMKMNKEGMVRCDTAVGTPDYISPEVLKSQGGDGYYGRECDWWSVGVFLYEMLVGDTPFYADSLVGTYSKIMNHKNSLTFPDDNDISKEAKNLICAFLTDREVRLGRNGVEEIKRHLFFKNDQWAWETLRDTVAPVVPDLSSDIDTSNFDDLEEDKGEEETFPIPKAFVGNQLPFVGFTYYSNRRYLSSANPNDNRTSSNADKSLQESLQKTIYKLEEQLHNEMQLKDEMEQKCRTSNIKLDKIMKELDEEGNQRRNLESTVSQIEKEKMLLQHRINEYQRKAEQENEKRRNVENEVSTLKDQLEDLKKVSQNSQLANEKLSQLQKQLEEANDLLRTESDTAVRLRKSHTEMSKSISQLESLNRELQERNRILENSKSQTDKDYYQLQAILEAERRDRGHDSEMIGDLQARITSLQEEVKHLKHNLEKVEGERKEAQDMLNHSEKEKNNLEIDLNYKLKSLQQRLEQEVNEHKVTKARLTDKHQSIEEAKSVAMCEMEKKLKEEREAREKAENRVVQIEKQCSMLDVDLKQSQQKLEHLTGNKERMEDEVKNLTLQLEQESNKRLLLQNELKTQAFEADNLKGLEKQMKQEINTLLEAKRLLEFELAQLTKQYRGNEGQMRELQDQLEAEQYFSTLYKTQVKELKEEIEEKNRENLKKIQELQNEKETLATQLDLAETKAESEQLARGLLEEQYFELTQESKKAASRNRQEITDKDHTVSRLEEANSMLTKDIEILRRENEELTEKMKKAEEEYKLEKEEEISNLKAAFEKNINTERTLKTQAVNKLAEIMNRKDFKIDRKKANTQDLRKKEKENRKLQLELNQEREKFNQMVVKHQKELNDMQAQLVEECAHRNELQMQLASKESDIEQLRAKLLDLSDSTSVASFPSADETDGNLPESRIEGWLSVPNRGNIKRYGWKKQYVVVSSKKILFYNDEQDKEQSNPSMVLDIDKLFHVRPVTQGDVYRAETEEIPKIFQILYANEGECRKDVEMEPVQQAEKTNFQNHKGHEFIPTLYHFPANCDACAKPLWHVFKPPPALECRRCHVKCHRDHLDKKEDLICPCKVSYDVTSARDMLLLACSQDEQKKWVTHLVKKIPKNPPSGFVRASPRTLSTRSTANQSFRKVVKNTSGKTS
Method: MRCKα, MRCKβ, ROCK1 and ROCK2 assays were performed using an IMAP fluorescence polarization assay format (Molecular Devices Inc.). […] Typically, dose response analyses were performed over concentration ranges from 0.005-100 μM. […] After 30 min incubation to allow binding reagent to bind phosphorylated peptide, fluorescence polarization was measured on a Tecan Saphire^2 plate reader at excitation (470 nm) and emission (530 nm) wavelengths.

MRCKα = MRCKα (Homo sapiens (Human), UniProt Q5VT25); assay: MRCKα kinase assay (IMAP fluorescence polarization); format: biochemical; conditions: 1 μM ATP; read-out: MRCK-a Average Ki
Sequence of MRCKα (Q5VT25 whole entry): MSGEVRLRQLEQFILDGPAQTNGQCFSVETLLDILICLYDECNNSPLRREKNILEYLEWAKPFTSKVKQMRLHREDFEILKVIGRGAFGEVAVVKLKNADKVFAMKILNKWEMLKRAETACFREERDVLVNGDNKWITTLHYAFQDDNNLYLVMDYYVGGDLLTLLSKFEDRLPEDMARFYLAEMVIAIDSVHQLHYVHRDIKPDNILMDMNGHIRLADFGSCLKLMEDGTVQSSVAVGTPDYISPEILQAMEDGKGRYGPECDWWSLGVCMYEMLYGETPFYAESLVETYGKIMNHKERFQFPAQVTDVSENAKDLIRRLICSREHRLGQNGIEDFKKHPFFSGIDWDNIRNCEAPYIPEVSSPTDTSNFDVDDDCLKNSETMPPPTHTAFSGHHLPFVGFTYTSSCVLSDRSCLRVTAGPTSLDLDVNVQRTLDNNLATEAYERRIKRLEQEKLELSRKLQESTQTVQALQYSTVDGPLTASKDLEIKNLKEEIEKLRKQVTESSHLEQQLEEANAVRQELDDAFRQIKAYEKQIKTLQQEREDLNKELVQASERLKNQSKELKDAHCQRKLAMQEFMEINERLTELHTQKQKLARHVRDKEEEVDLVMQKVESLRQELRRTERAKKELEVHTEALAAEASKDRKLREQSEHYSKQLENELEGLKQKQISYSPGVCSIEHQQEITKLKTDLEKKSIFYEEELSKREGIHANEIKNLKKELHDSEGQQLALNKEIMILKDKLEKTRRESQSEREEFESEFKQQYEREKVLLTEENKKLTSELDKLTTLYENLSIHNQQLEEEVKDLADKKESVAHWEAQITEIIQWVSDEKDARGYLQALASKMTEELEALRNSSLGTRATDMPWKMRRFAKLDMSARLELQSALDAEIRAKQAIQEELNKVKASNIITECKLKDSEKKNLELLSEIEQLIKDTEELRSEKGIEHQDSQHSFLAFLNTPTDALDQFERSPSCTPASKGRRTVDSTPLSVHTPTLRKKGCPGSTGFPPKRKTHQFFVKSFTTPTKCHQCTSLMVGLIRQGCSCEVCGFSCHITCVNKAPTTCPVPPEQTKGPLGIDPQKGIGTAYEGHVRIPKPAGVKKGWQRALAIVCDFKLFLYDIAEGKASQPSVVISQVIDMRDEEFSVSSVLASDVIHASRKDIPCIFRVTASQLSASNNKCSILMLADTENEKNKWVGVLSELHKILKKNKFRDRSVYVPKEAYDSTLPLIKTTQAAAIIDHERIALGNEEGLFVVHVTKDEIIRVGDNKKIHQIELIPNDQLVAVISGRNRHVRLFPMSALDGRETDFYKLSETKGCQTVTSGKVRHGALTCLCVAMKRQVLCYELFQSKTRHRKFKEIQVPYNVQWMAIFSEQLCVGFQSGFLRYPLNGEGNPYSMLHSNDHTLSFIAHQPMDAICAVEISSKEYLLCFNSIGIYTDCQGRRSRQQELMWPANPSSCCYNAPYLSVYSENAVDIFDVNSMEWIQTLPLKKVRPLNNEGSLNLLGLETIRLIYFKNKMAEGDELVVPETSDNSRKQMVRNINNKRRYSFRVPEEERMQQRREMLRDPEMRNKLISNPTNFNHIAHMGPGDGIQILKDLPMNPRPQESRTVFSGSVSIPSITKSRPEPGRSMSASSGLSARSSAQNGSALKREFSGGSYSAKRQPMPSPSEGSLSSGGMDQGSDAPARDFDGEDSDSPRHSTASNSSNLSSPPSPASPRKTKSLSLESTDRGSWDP
Excerpt: as §1

Sequence of ROCK2 (O75116 whole entry): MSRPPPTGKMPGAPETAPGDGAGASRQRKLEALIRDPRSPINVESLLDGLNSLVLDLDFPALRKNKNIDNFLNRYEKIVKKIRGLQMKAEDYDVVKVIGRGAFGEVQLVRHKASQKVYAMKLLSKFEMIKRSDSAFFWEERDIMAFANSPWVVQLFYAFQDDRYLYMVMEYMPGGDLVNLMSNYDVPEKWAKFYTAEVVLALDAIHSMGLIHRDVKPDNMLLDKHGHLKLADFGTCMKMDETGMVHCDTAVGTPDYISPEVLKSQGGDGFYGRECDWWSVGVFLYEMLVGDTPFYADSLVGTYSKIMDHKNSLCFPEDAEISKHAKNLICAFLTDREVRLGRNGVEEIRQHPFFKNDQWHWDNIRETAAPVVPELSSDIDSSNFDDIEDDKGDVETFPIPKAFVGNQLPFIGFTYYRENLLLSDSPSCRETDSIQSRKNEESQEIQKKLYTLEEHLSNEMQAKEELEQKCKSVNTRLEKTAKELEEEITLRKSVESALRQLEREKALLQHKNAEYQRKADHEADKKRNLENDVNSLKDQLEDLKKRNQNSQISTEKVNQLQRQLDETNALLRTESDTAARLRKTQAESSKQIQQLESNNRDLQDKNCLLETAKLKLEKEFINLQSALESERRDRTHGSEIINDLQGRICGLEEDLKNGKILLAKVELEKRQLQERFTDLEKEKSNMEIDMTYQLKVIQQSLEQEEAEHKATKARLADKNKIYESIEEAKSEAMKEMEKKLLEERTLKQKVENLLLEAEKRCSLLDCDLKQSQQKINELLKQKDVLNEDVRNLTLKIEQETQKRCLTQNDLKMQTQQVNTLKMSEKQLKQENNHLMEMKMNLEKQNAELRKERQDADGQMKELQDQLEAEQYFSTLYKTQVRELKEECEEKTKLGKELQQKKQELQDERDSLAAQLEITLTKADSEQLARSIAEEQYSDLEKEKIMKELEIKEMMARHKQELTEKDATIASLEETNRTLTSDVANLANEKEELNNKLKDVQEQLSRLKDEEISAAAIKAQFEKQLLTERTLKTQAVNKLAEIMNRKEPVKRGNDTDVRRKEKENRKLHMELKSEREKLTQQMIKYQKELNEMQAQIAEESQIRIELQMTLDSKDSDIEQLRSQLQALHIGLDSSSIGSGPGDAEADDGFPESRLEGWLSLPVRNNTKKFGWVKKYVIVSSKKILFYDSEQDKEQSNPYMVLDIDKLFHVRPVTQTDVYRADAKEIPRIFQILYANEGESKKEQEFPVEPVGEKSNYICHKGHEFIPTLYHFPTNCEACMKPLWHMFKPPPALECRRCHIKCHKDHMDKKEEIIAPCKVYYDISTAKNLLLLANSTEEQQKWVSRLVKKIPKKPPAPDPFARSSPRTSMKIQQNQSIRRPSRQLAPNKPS

| Ki (MRCKβ) | Ki (ROCK2) | Ki (ROCK1) | Ki (MRCKα) | SMILES |
| --- | --- | --- | --- | --- |
| 2.73 nM | 54 nM | 83.6 nM | 0.652 nM | c1ncc(-c2c[nH]c3nccc(N4CCCC5(CCCNC5)C4)c23)cn1 (stereo not shown) [Example E194, 2-(3-pyrimidin-5-yl-1H-pyrrolo[2,3-b]pyridin-4-yl)-2,8-diazaspiro[5.5]undecane] |
| 0.969 nM | 15.2 nM | 22.3 nM | 0.217 nM | c1ncc(-c2c[nH]c3nccc(N4CCC5(CCCNC5)CC4)c23)cn1 [Example E193, 9-(3-pyrimidin-5-yl-1H-pyrrolo[2,3-b]pyridin-4-yl)-2,9-diazaspiro[5.5]undecane] |
| 3.71 nM | 52.6 nM | 57.6 nM | 2.52 nM | c1ncc(-c2c[nH]c3nccc(OC[C@@H]4CCNC4)c23)cn1 [Example E219, 3-pyrimidin-5-yl-4-[[(3R)-pyrrolidin-3-yl]methoxy]-1H-pyrrolo[2,3-b]pyridine] |
| 1.47 nM | 299 nM | 50300 nM | 2.89 nM | c1cc(-c2c[nH]c3nccc(N4CCC[C@]5(CCCCN5)C4)c23)ncn1 [Example E118, (6R)-8-(3-pyrimidin-4-yl-1H-pyrrolo[2,3-b]pyridin-4-yl)-1,8-diazaspiro[5.5]undecane] |
| 1.52 nM | 28.8 nM | 93.6 nM | 0.598 nM | Cn1cc(-c2c[nH]c3nccc(N4CCCC5(CCCCN5)C4)c23)cn1 (stereo not shown) [Example E188, 8-[3-(1-methylpyrazol-4-yl)-1H-pyrrolo[2,3-b]pyridin-4-yl]-1,8-diazaspiro[5.5]undecane] |
| 1.31 nM | 167 nM | 643 nM | 0.131 nM | c1cnc(-c2c[nH]c3nccc(N4CCCC5(CCCCN5)C4)c23)cn1 (stereo not shown) [Example E189, 8-(3-pyrazin-2-yl-1H-pyrrolo[2,3-b]pyridin-4-yl)-1,8-diazaspiro[5.5]undecane] |
| 1.04 nM | 100000 nM | 100000 nM | 1.34 nM | c1cnc(-c2c[nH]c3nccc(N4CCCC5(CCCCN5)C4)c23)nc1 (stereo not shown) [Example E157, 8-(3-pyrimidin-2-yl-1H-pyrrolo[2,3-b]pyridin-4-yl)-1,8-diazaspiro[5.5]undecane] |

Continued, compound first:

| SMILES | Ki (MRCKβ) | Ki (ROCK2) | Ki (ROCK1) | Ki (MRCKα) |
| --- | --- | --- | --- | --- |
| CCN[C@H]1CCCN(c2ccnc3[nH]cc(-c4cncnc4)c23)C1 [Example E79, (3S)-N-ethyl-1-(3-pyrimidin-5-yl-1H-pyrrolo[2,3-b]pyridin-4-yl)piperidin-3-amine] | 2.27 nM | 448 nM | 50700 nM | 1.23 nM |
| c1ncc(-c2c[nH]c3nccc(N4CCC[C@H](N5CCCC5)C4)c23)cn1 [Example E99, 3-pyrimidin-5-yl-4-[(3S)-3-pyrrolidin-1-yl-1-piperidyl]-1H-pyrrolo[2,3-b]pyridine] | 3.81 nM | 603 nM | 1680 nM | 5.8 nM |
| CN[C@H]1CCCN(c2ccnc3[nH]cc(-c4cncnc4)c23)C1 [Example E57, (3S)-N-methyl-1-(3-pyrimidin-5-yl-1H-pyrrolo[2,3-b]pyridin-4-yl)piperidin-3-amine] | 2.34 nM | 545 nM | 50700 nM | 2.93 nM |
| N#Cc1c[nH]c2nccc(N3CCCC3)c12 [Example E36, 4-pyrrolidin-1-yl-1H-pyrrolo[2,3-b]pyridine-3-carbonitrile] | 78.9 nM | 65.8 nM | 90.6 nM | 82.1 nM |
| C[C@@H]1CCCN1c1ccnc2[nH]cc(C#N)c12 [Example E110, 4-[(2R)-2-methylpyrrolidin-1-yl]-1H-pyrrolo[2,3-b]pyridine-3-carbonitrile] | 1.44 nM | 2.44 nM | 2.77 nM | 4.6 nM |
| CNC1CCCN(c2ccnc3[nH]cc(-c4cncnc4)c23)CC1 (stereo not shown) [Example E68, N-methyl-1-(3-pyrimidin-5-yl-1H-pyrrolo[2,3-b]pyridin-4-yl)azepan-4-amine] | 1.09 nM | 36.9 nM | 55.9 nM | 0.382 nM |

Reference: patent US11447505B1, “Pyrrolo[2,3-b]pyridine compounds and their use in the treatment of cancer” (priority 2017, dated 2022)
